Where two headings read alike, the source gives them in different places.
Target: T1, VLA-4 (Homo sapiens, UniProt P05556+P13612)
T1 construct: host or cells: Jurkat clone E6-1
Assay: Adhesion of Jurkat cells to immobilized VCAM-1 (domains 1-3)
Assay type: cell-based
Design: scale not given here
Settings: adhesion of CFSE-labeled Jurkat cells to recombinant human VCAM-1 (domains 1-3) coated plates, compounds as yielded by solid phase synthesis, purity about 40-90%
Description: In Vitro Assay: Adhesion of Jurkat Cells to Immobilized VCAM-1 (Domains 1-3).
Preparation of Fluorescence Labeled Jurkat Cells:
Jurkat cells (American Type Culture Collection, Clone E6-1, ATCC TIB-152) were cultured in RPMI 1640 medium (Nikken Bio Medical Laboratory, CM1101) supplemented with 10% fetal bovine serum (Hyclone, A-1119-L), 100 U/ml penicilin (Gibco BRL, 15140-122) and 100 μg/ml streptomycin (Gibco BRL, 15140-122) in a humidified incubator at 37° C. with 5% CO2.
Jurkat cells were incubated with phosphate balanced solution (PBS, Nissui, 05913) containing 25 μM of 5(-and-6)-carboxyfluorescein diacetate, succinimidyle ester (CFSE, Dojindo Laboratories, 345-06441) for 20 min at room temperature while gently swirling every 5 min. After centrifugation at 1000 rpm for 5 min, the cell pellet was resuspended with adhesion assay buffer at a cell density of 2×10^6 cells/ml. The adhesion assay buffer was composed of 24 mM Tris-HCl (pH 7.4), 137 mM NaCl, 27 mM KCl, 4 mM glucose, 0.1% bovine serum albumin (BSA, Sigma, A9647) and 2 mM MnCl2.
Preparation of VCAM-1 (Extracellular Domains 1-3):
Complementary DNA (cDNA) encoding 7-domain form of VCAM-1 (GenBank accession #M60335) was obtained using Rapid-Screen™ cDNA library panels (OriGene Technologies, Inc) at Takara Gene Analysis Center (Shiga, Japan). The primers used were 5′-CCAAGGCAGAGTACGCAAAC-3′ (sence) and 5′-TGGCAGGTATTATTAAGGAG-3′ (antisense). PCR amplification of the 3-domain VCAM-1 cDNA was perform using Pfu DNA polymerase (Stratagene) with the following sets of primers: (U-VCAMd1-3) 5′-CCATATGGTACCTGATCAATTTAAAATCGAGACCACCCCAGAA-3′; (L-VCAMd1-3) 5′-CCATATAGCAATCCTAGGTCCAGGGGAGATCTCAACAGTAAA-3′. PCR cycle was 94° C. for 45 sec, 55° C. for 45 sec, 72° C. for 2 min, repeating 15 cycles. After the purification of the PCR product, the fragment was digested with KpnI-AvrII. The digested fragment was ligated into pBluescript IISK(−) (Strategene), which was linealized by digesting with KpnI-XhoI. The ligation was followed by transformation to a Dam/Dcm methylase-free E. coli strain SCS110 (Strategene) to create the donor plasmid pH7. To direct VCAM-1 molecule into the insect cell secretory pathway, the VCAM-1 coding sequence was fused to signal peptide sequence of honeybee melittin. The resulting melittin-VCAM fusion was placed in correct orientation to the baculoviris polyhedrin promoter. Baculovirus transfer vector containing first 3-domain form VCAM-1 (pH10) was constructed by ligation of 0.9 kb fragment from AvrII/Klenow/BclI digests of pH7 into SalI/Klenow/BamHI digests of pMelBacB (Invitrogen). Recombinant baculovirus was generated by using Bac-N-Blue™ Transfection kit (Invitrogen) according to the manufacture's instruction. The recombinant virus was amplified by infection to High-Five™ insect cells for 5-6 days, and virus titer was determined by plaque assay.
High-Five™ insect cells were pelleted in a 225 ml conical tube by centrifugation at 1000 rpm for 5 min After discarding the supernatant, the pellet was resuspended in 1.5×10^9 pfu (MOI=5) of high-titer virus solution, followed by incubation for 1.5 hours at room temperature. The cells were pelleted again and washed once in fresh Express Five™ serum free medium. The cells were pelleted again and finally, resuspended in 200 ml of fresh Express Five™ medium, transferred to a 1,000 ml shaker flask, and incubated in a shaker at 27° C., 130 rpm, for 48 hours before the culture supernatant was collected. The purification of 3-domain form of VCAM-1 from the culture supernatant was performed by one-step anion exchange chromatography. Protein concentration was determined by using Coomassie protein assay reagent (Pierce) according to the manufacture's instruction.
Preparation of Microtiter Plates:
Recombinant human VCAM-1 (extracellular domains 1-3) was dissolved at 0.5 μg/ml in PBS. […]

T1 sequence (P13612 34-1032): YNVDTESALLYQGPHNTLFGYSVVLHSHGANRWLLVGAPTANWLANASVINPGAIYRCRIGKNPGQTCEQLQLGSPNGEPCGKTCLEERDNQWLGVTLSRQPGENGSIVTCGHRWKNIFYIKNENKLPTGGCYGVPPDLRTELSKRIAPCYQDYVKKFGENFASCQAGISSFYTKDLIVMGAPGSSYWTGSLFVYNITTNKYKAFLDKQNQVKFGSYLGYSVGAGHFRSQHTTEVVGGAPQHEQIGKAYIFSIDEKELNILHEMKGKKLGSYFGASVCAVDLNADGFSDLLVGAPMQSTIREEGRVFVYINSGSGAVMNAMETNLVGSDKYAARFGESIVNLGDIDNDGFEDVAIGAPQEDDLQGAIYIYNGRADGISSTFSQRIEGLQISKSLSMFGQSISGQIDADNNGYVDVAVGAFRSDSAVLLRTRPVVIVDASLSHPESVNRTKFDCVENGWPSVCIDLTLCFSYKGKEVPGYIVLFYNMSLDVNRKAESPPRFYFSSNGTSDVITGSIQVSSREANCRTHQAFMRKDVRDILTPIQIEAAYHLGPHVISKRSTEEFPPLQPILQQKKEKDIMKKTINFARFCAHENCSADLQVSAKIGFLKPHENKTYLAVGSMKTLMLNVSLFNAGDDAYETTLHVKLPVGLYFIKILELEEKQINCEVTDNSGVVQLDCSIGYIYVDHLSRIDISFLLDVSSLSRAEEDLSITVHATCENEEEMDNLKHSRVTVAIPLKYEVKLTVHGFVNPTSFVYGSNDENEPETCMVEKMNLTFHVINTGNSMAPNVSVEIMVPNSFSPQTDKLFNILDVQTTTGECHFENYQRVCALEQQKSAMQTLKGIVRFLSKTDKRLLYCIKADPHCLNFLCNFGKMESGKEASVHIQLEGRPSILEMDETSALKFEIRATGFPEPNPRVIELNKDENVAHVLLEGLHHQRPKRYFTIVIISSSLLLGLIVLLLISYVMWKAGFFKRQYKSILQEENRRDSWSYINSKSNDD
T1 sequence (P05556 21-798): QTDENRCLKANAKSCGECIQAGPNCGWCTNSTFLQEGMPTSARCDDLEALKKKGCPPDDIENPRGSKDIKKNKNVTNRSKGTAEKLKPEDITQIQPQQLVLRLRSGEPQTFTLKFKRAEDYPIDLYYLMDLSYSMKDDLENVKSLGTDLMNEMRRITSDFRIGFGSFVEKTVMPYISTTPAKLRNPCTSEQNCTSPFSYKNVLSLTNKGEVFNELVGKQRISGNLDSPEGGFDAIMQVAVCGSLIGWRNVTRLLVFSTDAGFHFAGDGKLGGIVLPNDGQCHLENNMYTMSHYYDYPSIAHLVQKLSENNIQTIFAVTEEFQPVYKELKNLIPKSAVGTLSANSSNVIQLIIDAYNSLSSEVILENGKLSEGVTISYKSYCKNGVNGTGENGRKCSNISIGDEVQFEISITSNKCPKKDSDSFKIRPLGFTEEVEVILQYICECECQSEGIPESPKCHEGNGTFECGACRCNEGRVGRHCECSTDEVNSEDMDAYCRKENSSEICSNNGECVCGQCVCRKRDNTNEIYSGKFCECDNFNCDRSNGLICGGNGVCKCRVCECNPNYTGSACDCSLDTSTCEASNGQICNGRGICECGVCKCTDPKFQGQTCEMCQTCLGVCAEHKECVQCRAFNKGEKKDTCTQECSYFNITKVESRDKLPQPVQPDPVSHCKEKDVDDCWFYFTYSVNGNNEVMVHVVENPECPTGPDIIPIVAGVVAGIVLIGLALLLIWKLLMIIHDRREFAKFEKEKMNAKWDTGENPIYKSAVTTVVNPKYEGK

| Structure (SMILES) | IC50 | IC50 (read-out: IC50) [nM] |
| --- | --- | --- |
| O=C(N[C@@H](Cc1ccc(-c2ccc(Cl)c(Cl)c2)cc1)C(=O)O)C1CCCN(c2ncnc(NCCN3CCCC3)c2F)C1 (stereo partly drawn) [Example 2.49] | C-D |  |
| O=C(N[C@@H](Cc1ccc(-c2ccc(Cl)cc2Cl)cc1)C(=O)O)C1CCCN(C(=O)C2CCCCC2)C1 (stereo partly drawn) [Example 1.44] | C-D |  |
| COC(=O)c1ccccc1S(=O)(=O)N1CCCC(C(=O)N[C@@H](Cc2ccc(-c3ccc(Cl)cc3Cl)cc2)C(=O)O)C1 (stereo partly drawn) [Example 1.95] | C-D |  |
| O=C(N[C@@H](Cc1ccc(-c2cc(Cl)ccc2Cl)cc1)C(=O)O)C1CCCN(S(=O)(=O)c2cc(Cl)cc(Cl)c2)C1 (stereo partly drawn) [Example 1.111] | C-D |  |
| Cc1ccccc1-c1ccc(C[C@H](NC(=O)C2CCCN(S(=O)(=O)c3ccccc3C(F)(F)F)C2)C(=O)O)cc1 (stereo partly drawn) [Example 1.89] | C-D |  |
| O=C(N[C@@H](Cc1ccc(-c2ccc(Cl)c(Cl)c2)cc1)C(=O)O)C1CCCN(c2ncnc(N3CCNCC3)c2F)C1 (stereo partly drawn) [Example 2.46] | C-D |  |
| Cc1ccc(-c2ccc(C[C@H](NC(=O)C3CCCN(C(=O)c4ccc5c(c4)OCO5)C3)C(=O)O)cc2)cc1 (stereo partly drawn) [Example 1.20] | C-D |  |
| O=C(N[C@@H](Cc1ccc(-c2cc(Cl)ccc2Cl)cc1)C(=O)O)C1CCCN(S(=O)(=O)c2ccc3ccccc3c2)C1 (stereo partly drawn) [Example 1.106] | C-D |  |
| COc1ccc(-c2ccc(C[C@H](NC(=O)C3CCCN(S(=O)(=O)c4ccc5ccccc5c4)C3)C(=O)O)cc2)cc1 (stereo partly drawn) [Example 1.78] | C-D |  |
| COc1ccc(-c2ccc(C[C@H](NC(=O)C3CCCN(S(=O)(=O)CC45CCC(CC4=O)C5(C)C)C3)C(=O)O)cc2)cc1 (stereo partly drawn) [Example 1.75] | C-D |  |
| Cc1ccccc1-c1ccc(C[C@H](NC(=O)C2CCCN(S(=O)(=O)c3ccc4ccccc4c3)C2)C(=O)O)cc1 (stereo partly drawn) [Example 1.87] |  | 500 to 2000 |
| Cc1ccccc1-c1ccc(C[C@H](NC(=O)C2CCCN(c3ncnc(NC4CCCCC4)c3F)C2)C(=O)O)cc1 (stereo partly drawn) [Example 2.25] | C-D |  |
| O=C(N[C@@H](Cc1ccc(-c2ccc(Cl)cc2Cl)cc1)C(=O)O)C1CCCN(C(=O)c2ccccc2Cl)C1 (stereo partly drawn) [Example 1.4, (2S)-2-({[1-(2-chlorobenzoyl)-3-piperidinyl]carbonyl}amino)-3-(2′,4′-dichloro[1,1′-biphenyl]-4-yl)propanoic acid] |  | 500 to 2000 |
| O=C(N[C@@H](Cc1ccc(-c2ccccc2)cc1)C(=O)O)C1CCCN(C(=O)c2ccc3c(c2)OCO3)C1 (stereo partly drawn) [Example 1.10] | C-D |  |
| Cc1cc(Cl)c(CC(=O)N2CCCC(C(=O)N[C@@H](Cc3ccc(-c4ccccc4)cc3)C(=O)O)C2)c(Cl)c1 (stereo partly drawn) [Example 1.12] | C-D |  |
| Cc1ccc(-c2ccc(C[C@H](NC(=O)C3CCCN(c4ncnc(N5CCOCC5)c4F)C3)C(=O)O)cc2)cc1 (stereo partly drawn) [Example 2.7] | C-D |  |
| CCCCN(C)c1ncnc(N2CCCC(C(=O)N[C@@H](Cc3ccc(-c4ccc(C)cc4)cc3)C(=O)O)C2)c1F (stereo partly drawn) [Example 2.13] | C-D |  |
| Cc1ccc(-c2ccc(C[C@H](NC(=O)C3CCCN(S(=O)(=O)CC45CCC(CC4=O)C5(C)C)C3)C(=O)O)cc2)cc1 (stereo partly drawn) [Example 1.65] | C-D |  |
| O=C(N[C@@H](Cc1ccc(-c2ccc(Cl)cc2Cl)cc1)C(=O)O)C1CCCN(C(=O)Cc2ccccc2)C1 (stereo partly drawn) [Example 1.40] | C-D |  |
| COc1ccccc1C(=O)N1CCCC(C(=O)N[C@@H](Cc2ccc(-c3ccc(Cl)cc3Cl)cc2)C(=O)O)C1 (stereo partly drawn) [Example 1.46] |  | 2000 to 10000 |
| O=C(N[C@@H](Cc1ccc(-c2cc(Cl)ccc2Cl)cc1)C(=O)O)C1CCCN(c2ncnc(N3CCCCC3)c2F)C1 (stereo partly drawn) [Example 2.35] | C-D |  |
| COC(=O)c1ccccc1S(=O)(=O)N1CCCC(C(=O)N[C@@H](Cc2ccc(-c3ccc(OC)cc3)cc2)C(=O)O)C1 (stereo partly drawn) [Example 1.77] | C-D |  |
| O=C(N[C@@H](Cc1ccc(-c2ccccc2)cc1)C(=O)O)C1CCCN(S(=O)(=O)c2cc(Cl)cc(Cl)c2)C1 (stereo partly drawn) [Example 1.64] | C-D |  |
| Cc1ccc(C(=O)N2CCCC(C(=O)N[C@@H](Cc3ccc(-c4ccc(C)cc4)cc3)C(=O)O)C2)cc1 (stereo partly drawn) [Example 1.19] | C-D |  |
| CCCNc1ncnc(N2CCCC(C(=O)N[C@@H](Cc3ccc(-c4ccccc4C)cc3)C(=O)O)C2)c1F (stereo partly drawn) [Example 2.30] |  | 2000 to 10000 |
| O=C(N[C@@H](Cc1ccc(-c2cc(Cl)ccc2Cl)cc1)C(=O)O)C1CCCN(C(=O)OC2CCCC2)C1 (stereo partly drawn) [Example 1.5, (2S)-2-[({1-[(cyclopentyloxy)carbonyl]-3-piperidinyl}carbonyl)amino]-3-(2′,5′-dichloro[1,1′-biphenyl]-4-yl)propanoic acid] |  | ≤ 500 |
| COc1ccc(Cl)cc1S(=O)(=O)N1CCCC(C(=O)N[C@@H](Cc2ccc(-c3ccccc3)cc2)C(=O)O)C1 (stereo partly drawn) [Example 1.62] | C-D |  |
| COc1ccc(-c2ccc(C[C@H](NC(=O)C3CCCN(S(=O)(=O)Cc4ccccc4)C3)C(=O)O)cc2)cc1 (stereo partly drawn) [Example 1.82] | C-D |  |
| CCCCN(C)c1ncnc(N2CCCC(C(=O)N[C@@H](Cc3ccc(-c4ccc(OC)cc4)cc3)C(=O)O)C2)c1F (stereo partly drawn) [Example 2.23] | C-D |  |
| COc1ccc(-c2ccc(C[C@H](NC(=O)C3CCCN(S(=O)(=O)c4ccccc4C(F)(F)F)C3)C(=O)O)cc2)cc1 (stereo partly drawn) [Example 1.80] | C-D |  |

Results, then the compound that gave them:

| IC50 | IC50 (read-out: IC50) [nM] | Structure (SMILES) |
| --- | --- | --- |
|  | ≤ 500 | CN1CCN(C(=O)Nc2ccc(C[C@H](NC(=O)C3CCCN(C(=O)c4ccccc4F)C3)C(=O)O)cc2)CC1 (stereo partly drawn) [Example 4.51] |
|  | 2000 to 10000 | CN1CCN(C(=O)Nc2ccc(C[C@H](NC(=O)C3CCCN(c4ncnc(NCc5cccnc5)c4F)C3)C(=O)O)cc2)CC1 (stereo partly drawn) [Example 5.29] |
|  | ≤ 500 | O=C(N[C@@H](Cc1ccc(NC(=O)N2CCc3ccccc3C2)cc1)C(=O)O)C1CCCN(C(=O)Cc2cccs2)C1 (stereo partly drawn) [Example 4.9] |
|  | 500 to 2000 | O=C(N[C@@H](Cc1ccc(NC(=O)N2CCOCC2)cc1)C(=O)O)C1CCCN(C(=O)Nc2ccccc2F)C1 (stereo partly drawn) [Example 4.61] |
|  | 500 to 2000 | COc1ccccc1NC(=O)N1CCCC(C(=O)N[C@@H](Cc2ccc(NC(=O)N3CCCCC3)cc2)C(=O)O)C1 (stereo partly drawn) [Example 4.54] |
|  | 500 to 2000 | O=C(N[C@@H](Cc1ccc(NC(=O)N2CCOCC2)cc1)C(=O)O)C1CCCN(C(=O)OCc2ccccc2)C1 (stereo partly drawn) [Example 4.17] |
|  | 2000 to 10000 | CN(C)CCCNc1ncnc(N2CCCC(C(=O)N[C@@H](Cc3ccc(NC(=O)N4CCN(c5ccccc5)CC4)cc3)C(=O)O)C2)c1F (stereo partly drawn) [Example 5.15] |
|  | 2000 to 10000 | COc1ccccc1-c1ccc(C[C@H](NC(=O)C2CCCN(c3ncnc(NC4CCN(Cc5ccccc5)CC4)c3F)C2)C(=O)O)cc1 (stereo partly drawn) [Example 5.2] |
|  | 500 to 2000 | CN1CCN(C(=O)Nc2ccc(C[C@H](NC(=O)C3CCCN(C(=O)c4ccc(OC(F)(F)F)cc4)C3)C(=O)O)cc2)CC1 (stereo partly drawn) [Example 4.3] |
|  | 500 to 2000 | CN1CCN(C(=O)Nc2ccc(C[C@H](NC(=O)C3CCCN(S(=O)(=O)Cc4ccccc4)C3)C(=O)O)cc2)CC1 (stereo partly drawn) [Example 4.28] |
|  | 500 to 2000 | CN(c1ncnc(N2CCCC(C(=O)N[C@@H](Cc3ccc(NC(=O)N4CCN(c5ccccc5)CC4)cc3)C(=O)O)C2)c1F)C1CCCCC1 (stereo partly drawn) [Example 5.43] |
|  | 500 to 2000 | O=C(N[C@@H](Cc1ccc(NC(=O)N2CCOCC2)cc1)C(=O)O)C1CCCN(S(=O)(=O)Cc2ccccc2)C1 (stereo partly drawn) [Example 4.44] |
